# Assay results taken from PubChem BioAssay (NCI).
#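 Growth conditions: 96-well plates. Treatment: test compound, 48 hours, 5 concentrations. Analysis: linear interpolation between bracketing concentrations; unreached endpoints set to highest concentration. TGI denotes the concentration required for complete inhibition of growth.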
# What was measured:
# Assay in all cases: NCI-60 cell line screen, 48 h
# NCI-H23 lung = test system: NCI-H23 lung
# SK-MEL-5 melanoma = test system: SK-MEL-5 melanoma
# HT29 colon = test system: HT29 colon
# U251 CNS = test system: U251 CNS
# MALME-3M melanoma = test system: MALME-3M melanoma
# DLD-1 colon = test system: DLD-1 colon
# 786-0 renal = test system: 786-0 renal
# SNB-78 CNS = test system: SNB-78 CNS
# COLO 205 colon = test system: COLO 205 colon
# HL-60(TB) leukemia = test system: HL-60(TB) leukemia
# LOX IMVI melanoma = test system: LOX IMVI melanoma
# SF-539 CNS = test system: SF-539 CNS
# RPMI-8226 leukemia = test system: RPMI-8226 leukemia
# ACHN renal = test system: ACHN renal
# HOP-62 NSCLC = test system: HOP-62 NSCLC
# SK-OV-3 ovarian = test system: SK-OV-3 ovarian
# SN12C renal = test system: SN12C renal
# HCT-116 colon = test system: HCT-116 colon
# OVCAR-8 ovarian = test system: OVCAR-8 ovarian
# UACC-62 melanoma = test system: UACC-62 melanoma
# DMS 114 small cell lung = test system: DMS 114 small cell lung
# MOLT-4 leukemia = test system: MOLT-4 leukemia
# KM20L2 colon = test system: KM20L2 colon
# OVCAR-3 ovarian = test system: OVCAR-3 ovarian
# M14 melanoma = test system: M14 melanoma
# IGROV1 ovarian = test system: IGROV1 ovarian
# A549 NSCLC = test system: A549 NSCLC
# SNB-75 CNS = test system: SNB-75 CNS
# SK-MEL-2 melanoma = test system: SK-MEL-2 melanoma
# SF-268 CNS = test system: SF-268 CNS
# DMS 273 small cell lung = test system: DMS 273 small cell lung
# HOP-92 NSCLC = test system: HOP-92 NSCLC
# SNB-19 CNS = test system: SNB-19 CNS
# HCC-2998 colon = test system: HCC-2998 colon
# SK-MEL-28 melanoma = test system: SK-MEL-28 melanoma
# SF-295 CNS = test system: SF-295 CNS
# RXF 393 renal = test system: RXF 393 renal
# NCI-H522 lung = test system: NCI-H522 lung
# CAKI-1 renal = test system: CAKI-1 renal
# SW-620 colon = test system: SW-620 colon
# EKVX NSCLC = test system: EKVX NSCLC
# UO-31 renal = test system: UO-31 renal
# M19-MEL melanoma = test system: M19-MEL melanoma
# K-562 leukemia = test system: K-562 leukemia
# UACC-257 melanoma = test system: UACC-257 melanoma
# HCT-15 colon = test system: HCT-15 colon
# TK-10 renal = test system: TK-10 renal
# NCI-H226 lung = test system: NCI-H226 lung
# LXFL 529 NSCLC = test system: LXFL 529 NSCLC
# CCRF-CEM leukemia = test system: CCRF-CEM leukemia
# OVCAR-4 ovarian = test system: OVCAR-4 ovarian
# A498 renal = test system: A498 renal
# OVCAR-5 ovarian = test system: OVCAR-5 ovarian
# HOP-18 NSCLC = test system: HOP-18 NSCLC
# KM12 colon = test system: KM12 colon
smiles,measurement,setting,value
CCC12C=C(C(=O)OC)N3c4ccccc4C4CCN(CCC1)C2C43 (stereo not given),TGI,NCI-H23 lung,> 100 µM
same,TGI,SK-MEL-5 melanoma,> 100 µM
same,TGI,HT29 colon,> 100 µM
same,TGI,U251 CNS,> 100 µM
same,TGI,MALME-3M melanoma,70.4 µM
same,TGI,DLD-1 colon,> 100 µM
same,TGI,786-0 renal,60.9 µM
same,TGI,SNB-78 CNS,> 100 µM
same,TGI,COLO 205 colon,> 100 µM
same,TGI,HL-60(TB) leukemia,> 100 µM
same,TGI,LOX IMVI melanoma,> 100 µM
same,TGI,SF-539 CNS,> 100 µM
same,TGI,RPMI-8226 leukemia,> 100 µM
same,TGI,ACHN renal,> 100 µM
same,TGI,HOP-62 NSCLC,99.8 µM
same,TGI,SK-OV-3 ovarian,> 100 µM
same,TGI,SN12C renal,> 100 µM
same,TGI,HCT-116 colon,> 100 µM
same,TGI,OVCAR-8 ovarian,> 100 µM
same,TGI,UACC-62 melanoma,> 100 µM
same,TGI,DMS 114 small cell lung,> 100 µM
same,TGI,MOLT-4 leukemia,> 100 µM
same,TGI,KM20L2 colon,56.7 µM
same,TGI,OVCAR-3 ovarian,> 100 µM
same,TGI,M14 melanoma,> 100 µM
same,TGI,IGROV1 ovarian,> 100 µM
same,TGI,A549 NSCLC,> 100 µM
same,TGI,SNB-75 CNS,> 100 µM
same,TGI,SK-MEL-2 melanoma,> 100 µM
same,TGI,SF-268 CNS,> 100 µM
same,TGI,DMS 273 small cell lung,> 100 µM
same,TGI,HOP-92 NSCLC,> 100 µM
same,TGI,SNB-19 CNS,> 100 µM
same,TGI,HCC-2998 colon,> 100 µM
same,TGI,SK-MEL-28 melanoma,> 100 µM
same,TGI,SF-295 CNS,> 100 µM
same,TGI,RXF 393 renal,> 100 µM
same,TGI,NCI-H522 lung,> 100 µM
same,TGI,CAKI-1 renal,> 100 µM
same,TGI,SW-620 colon,> 100 µM
same,TGI,EKVX NSCLC,> 100 µM
same,TGI,UO-31 renal,> 100 µM
same,TGI,M19-MEL melanoma,> 100 µM
same,TGI,K-562 leukemia,> 100 µM
same,TGI,UACC-257 melanoma,> 100 µM
same,TGI,HCT-15 colon,> 100 µM
same,TGI,TK-10 renal,> 100 µM
same,TGI,NCI-H226 lung,82.5 µM
same,TGI,LXFL 529 NSCLC,> 100 µM
same,TGI,CCRF-CEM leukemia,> 100 µM
same,TGI,OVCAR-4 ovarian,> 100 µM
same,TGI,A498 renal,> 100 µM
same,TGI,OVCAR-5 ovarian,> 100 µM
same,TGI,HOP-18 NSCLC,> 100 µM
same,TGI,KM12 colon,> 100 µM
